According to patent US8900720B2, “Multi-functional wood preservatives based on a borate/fatty acid combination” (Summerdale, Inc, priority 2010, dated 2014):

Tested on: mold fungi
Test: Moldicide assay on treated southern yellow pine stakes (ASTM D4445-91, ASTM D3273-00)
Type: cell-based
Settings: dip-treated stakes, relative to the water control
Protocol: All moldicide assays were conducted via ASTM standard D4445-91 (1998) and ASTM D3273-00 (1986).
Six groups of southern yellow pine stakes (12 replicates) were dip-treated (30 seconds) with treatments 3-1 through 3-6, inoculated with mold spores, incubated, and examined after 12 weeks (Table 3).
Six groups of southern yellow pine stakes (12 replicates) were dip-treated (30 seconds) with treatments 4-1 through 4-6, inoculated with mold spores, incubated, and examined after 12 weeks.

| SMILES | moldicide activity (in words) |
| --- | --- |
| OB(O)O [Boric acid, boric acid] | no moldicide activity |
| O.O.O.O.O=BOB1OB(OB=O)OB2OB([O-])OB([O-])OB(O1)O2.[Na+].[Na+] [DOT, disodium octaborate tetrahydrate] | no moldicide activity |
